Values after ≈ are worked out from the molar mass of the structure shown. Square brackets hold non-standard residues; d marks the D form. Peptide text beside a SMILES is read from it. αMeK = C[C@](N)(CCCCN)C(=O)O
Legend:
A. baumannii WRAMC #16 = type: cell-based, Acinetobacter baumannii
From the text: (§1) As shown in the table below, many drug-resistant pathogens including multidrug-resistant Acinetobacter baumannii (clinical isolates) were susceptible to the bactericidal activity of the newly developed antimicrobial peptides. […] This is shown by their lower MIC and MBC against a number of antibiotic-resistant bacteria including methicillin-resistant Staphylococcus aureus, vancomycin-resistant Enterococci, and multidrug-resistant Acinetobacter baumannii. Many of these resistant strains are involved in nosocomial infections, which affect the immunocompromised and the elderly individuals with weakened defenses. The tests were done in a broth microdilution assay as described in our earlier publication (Concannon et al., 2003).

A. baumannii WRAMC #8 = type: cell-based, Acinetobacter baumannii
From the text: as §1

A. baumannii WRAMC #18 = type: cell-based, Acinetobacter baumannii
From the text: as §1

A. baumannii WRAMC #2 = type: cell-based, Acinetobacter baumannii
From the text: as §1

A. baumannii WRAMC #4 = type: cell-based, Acinetobacter baumannii
From the text: as §1

A. baumannii WRAMC #11 = type: cell-based, Acinetobacter baumannii
From the text: as §1

A. baumannii ATCC #19606 = type: cell-based, Acinetobacter baumannii
From the text: as §1

A. baumannii WRAMC #17 = type: cell-based, Acinetobacter baumannii
From the text: as §1

A. baumannii WRAMC #15 = type: cell-based, Acinetobacter baumannii
From the text: as §1

A. baumannii WRAMC #14 = type: cell-based, Acinetobacter baumannii
From the text: as §1

A. baumannii WRAMC #19 = type: cell-based, Acinetobacter baumannii
From the text: as §1

A. baumannii WRAMC #5 = type: cell-based, Acinetobacter baumannii
From the text: as §1

A. baumannii WRAMC #13 = type: cell-based, Acinetobacter baumannii
From the text: as §1

VRE VVRAMC #7 = type: cell-based, Enterococci
From the text: as §1

VRE ATCC #51299 = type: cell-based, Enterococci
From the text: as §1

VRE WRAMC #6 = type: cell-based, Enterococci
From the text: as §1

VRE WRAMC #3 = type: cell-based, Enterococci
From the text: as §1

MRSA WRAMC #12 = type: cell-based, Staphylococcus aureus
From the text: as §1

MRSA VVRAMC #10 = type: cell-based, Staphylococcus aureus
From the text: as §1

MRSA VVRAMC #1 = type: cell-based, Staphylococcus aureus
From the text: as §1

MRSA ATCC #43300 = type: cell-based, Staphylococcus aureus
From the text: as §1

MRSA WRAMC #9 = type: cell-based, Staphylococcus aureus
From the text: as §1

MRSA ATCC #33591 = type: cell-based, Staphylococcus aureus
From the text: as §1

[1] = tested on: biofilms grown on saliva-coated HA surfaces; experiment: Live/Dead BacLight staining with confocal laser scanning microscopy of treated biofilms; type: cell-based, human salivary bacteria; details: 66 h-old biofilms; KSL 200 μg/ml, Bzl 0.001%, CHX 0.12%
Procedure: (A) Effect of KSL on intact versus disrupted 45 h biofilms formed on saliva-coated HA disks by salivary bacteria using the in vitro plaque assay. A Mann-Whitney test was used for comparison of log reductions in CFU between the experimental groups (KSL-treated intact or disrupted biofilms) with the control groups (dH2O-treated intact or disrupted biofilms). The single asterisk represents a statistically significant difference between KSL and dH2O-treated intact biofilms (p<0.05). Likewise, double asterisks represent a statistically significant difference between KSL and dH2O-treated disrupted biofilms (p<0.01). […] (B) Effect of benzalkonium chloride in promoting the bactericidal activity of KSL against 66 h-old intact oral biofilms formed on saliva-coated HA disks using the in vitro plaque system. A Kruskal-Wallis test was used to compare log reductions in CFU among various treatment groups including the control group (dH2O-treated). The single asterisk represents a statistically significant difference between the combined treatment of KSL and benzalkonium chloride (Bzl) and dH2O (p<0.001), KSL (p<0.01), or Bzl (p<0.01)-treated intact biofilms. Double asterisks represent a statistically significant difference between CHX and dH2O (p<0.001) or Bzl (P<0.05)-treated intact biofilms. […] No significant difference in viability counts was observed between CHX-treated versus the combined use of KSL and Bzl. For (A) and (B), the data represent the determinations of one of three separate experiments, each performed in quadruplicate. Bars represent standard deviations. (C) Confocal images of control and treated biofilms grown on saliva-coated HA surfaces. Live/Dead BacLight™ Viability kit (Molecular Probes, Eugene, Oreg.) was used to assess the viability of biofilm cells exposed to different treatments. […] An excitation wavelength of 488 nm was used and the fluorescence light emitted was collected by two separate emission filters, 500-530 nm (SYTO 9, live), and 650-710 nm (propidium iodide, dead). […]

[2] = tested on: oral biofilms formed on saliva-coated HA disks by salivary bacteria; experiment: In vitro plaque assay, viable counts of oral biofilms on saliva-coated HA disks; type: cell-based, human salivary bacteria
From the text: In conjunction with the dual flow cell system, a modification of an in vitro plaque model of biofilm formation described by Guggenheim et al. (Guggenheim et al., 2001) was used to determine the effects of tested antimicrobials and other agents on developed oral biofilms (see Appendix I for details). HA disks (Clarkson, south Williamsport, Pa.) were employed as substrates for salivary bacteria to form biofilms.
To determine the inhibitory activity of KSL on developed oral biofilms, disks containing 45 h-old biofilms were transferred to wells containing aqueous KSL (200 μg/ml; 1 ml/well). Following 30 min exposure at 37° C., disks were rinsed with 3×1 ml of saline and transferred to sterile 15 ml polypropylene tubes containing 1 ml PBS. Biofilm cells adherent to surfaces (after treatment) were recovered by sonicating for 2 min at 5 watts with a Microson ultrasonic cell disrupter equipped with a cup horn (Misonix Inc., Farmingdale, N.Y.). Settings including the time interval used in the sonication were predetermined empirically to yield maximal recovery of adherent biofilm cells.
The effect of KSL on disrupted biofilms was assessed by recovering biofilm cells from HA disks (45 h-old biofilms) through sonication as described above. The detached biofilm cells (in sterile dH2O) were mixed with an equal volume of aqueous KSL to obtain a final peptide concentration of 200 μg/ml, and the reaction mixtures incubated at 37° C. for 30 min. The interactions of KSL and suspended biofilm cells were terminated by washing in PBS.
To determine the effect of the surface-active agent (benzalkonium chloride; Sigma, St. Louis, Mo.) in promoting the killing of intact biofilms by KSL, 66 h-old oral biofilms were treated with KSL (200 μg/ml), benzalkonium chloride (0.001%), or a combination of the two agents, followed by viable counts determinations and confocal laser scanning microscopy of treated samples.
Viable counts of biofilm cells derived from treated disks or disrupted biofilms were determined by spiral plating serially diluted samples onto blood agar plates. Distilled water or 0.12% aqueous chlorhexidine digluconate (Sigma) was used as the negative or positive control, respectively. The 45 h-old biofilms were exposed to chlorhexidine for 1 min, and to water for 30 min at 37° C.
In this assay, HA disks (Clarkson Chromatography Products, Inc., South Williamsport, Pa.) were used as surfaces on which plaque formation can occur. Before use, sterile HA disks were conditioned in the wells of a 24-well microtiter plate (Becton Dickinson, Franklin Lakes, N.J.) containing 50% sterile saliva by incubating at room temperature for a minimum of two hours on a rotating platform at 95 rpm. The saliva was removed and each well inoculated with isolated salivary bacteria at a bacterial cell concentration of 1.0×10^7 cells/ml in sterile 50% whole saliva. After two hours of incubation (with rotation) at 37° C. to allow the bacteria to adhere to surfaces, unattached bacteria were removed and replaced with supplemented saliva-based medium. The plates were incubated with rotation at 37° C. for 45 h (with medium replaced three times), or 66 h (with medium replaced five times) in a CO2 incubator prior to treatments, and the recovery of biofilm cells from treated or untreated disks.
In these studies, KSL or KSL-W was used at 200 μg/ml, whereas Bzl and CPC were used at 0.001% and 0.0025%, respectively. […]

| Molecule | MBC (A. baumannii WRAMC #16) | MIC (A. baumannii WRAMC #16) | MBC (A. baumannii WRAMC #8) | MBC (A. baumannii WRAMC #18) | MBC (A. baumannii WRAMC #2) | MBC (A. baumannii WRAMC #4) | MIC (A. baumannii WRAMC #4) | MBC (A. baumannii WRAMC #11) | MBC (A. baumannii WRAMC #17) | MIC (A. baumannii WRAMC #17) | MBC (A. baumannii WRAMC #14) | MBC (A. baumannii WRAMC #5) | MBC (A. baumannii WRAMC #13) | MBC (MRSA WRAMC #12) | MIC (MRSA WRAMC #12) | MBC (MRSA VVRAMC #10) | MIC (MRSA VVRAMC #10) | MBC (MRSA VVRAMC #1) | MBC (MRSA ATCC #43300) | MIC (MRSA ATCC #43300) | also measured |
| --- | --- | --- | --- | --- | --- | --- | --- | --- | --- | --- | --- | --- | --- | --- | --- | --- | --- | --- | --- | --- | --- |
| H-DDDEEKFLRRIGRYGKKVVFWVKFK-NH2 [H1-2] | 25 mg/L | 12.5 mg/L | 25 mg/L | 25 mg/L | 200 mg/L | 50 mg/L | 25 mg/L | 50 mg/L | 100 mg/L | 25 mg/L | 50 mg/L | 25 mg/L | 50 mg/L | 6.25 mg/L | 3.125 mg/L | 25 mg/L | 1.56 mg/L | 25 mg/L | 12.5 mg/L | 3.125 mg/L | MIC (A. baumannii WRAMC #2): 25 mg/L; MIC (A. baumannii WRAMC #11): 25 mg/L; MBC (A. baumannii ATCC #19606): 25 mg/L; MIC (A. baumannii ATCC #19606): 12.5 mg/L; MBC (A. baumannii WRAMC #15): 50 mg/L; MIC (A. baumannii WRAMC #15): 25 mg/L; MBC (A. baumannii WRAMC #19): 200 mg/L; MIC (VRE VVRAMC #7): <1.56 mg/L; MBC (VRE VVRAMC #7; VRE VVRAMC #7): 0 mg/L; MBC (VRE ATCC #51299): 50 mg/L; MIC (VRE ATCC #51299): 12.5 (25) μg/ml; MBC (VRE WRAMC #6): 6.25 mg/L; MIC (VRE WRAMC #6): <1.56 mg/L; MBC (VRE WRAMC #3): 25 mg/L; MIC (VRE WRAMC #3): 6.25 mg/L; MBC (MRSA WRAMC #9): 3.125 mg/L; MBC (MRSA ATCC #33591): 12.5 mg/L; MIC (MRSA ATCC #33591): 3.125 mg/L |
| CC(C)[C@H](NC(=O)[C@H](CCCCN)NC(=O)[C@@H](N)CCCCN)C(=O)N[C@H](C(=O)N[C@@H](Cc1ccccc1)C(=O)N[C@@](C)(CCCCN)C(=O)N[C@H](C(=O)N[C@@H](CCCCN)C(=O)N[C@@H](Cc1ccccc1)C(=O)N[C@@H](CCCCN)C(N)=O)C(C)C)C(C)C [KSL-M, NH2-Lys-Lys-Val-Val-Phe-Lys(me)-Val-Lys-Phe-Lys-CONH2] (H-KKVVF[αMeK]VKFK-NH2) | 100 mg/L (≈ 79.1 µM) | 50 mg/L (≈ 39.6 µM) | >200 mg/L | 100 mg/L (≈ 79.1 µM) | 200 mg/L (≈ 158 µM) | 50 mg/L (≈ 39.6 µM) | 25 mg/L (≈ 19.8 µM) | 100 mg/L (≈ 79.1 µM) | 200 mg/L (≈ 158 µM) | 100 mg/L (≈ 79.1 µM) | 200 mg/L (≈ 158 µM) | 50 mg/L (≈ 39.6 µM) | 200 mg/L (≈ 158 µM) | >200 mg/L | >200 mg/L | >200 mg/L | >200 mg/L | >200 mg/L | >200 mg/L | >200 mg/L | MIC (A. baumannii WRAMC #8): >200 mg/L; MIC (MRSA VVRAMC #1): >200 mg/L; MBC (MRSA WRAMC #9): >200 mg/L; MIC (MRSA WRAMC #9): >200 mg/L; MBC (MRSA ATCC #33591): >200 mg/L; MIC (MRSA ATCC #33591): >200 mg/L |
| benzalkonium chloride [reference compound] | – | – | – | – | – | – | – | – | – | – | – | – | – | – | – | – | – | – | – | – | viability of biofilm cells by live/dead staining [1]: less impact on the viability of biofilm cells; effect on viability of intact biofilms compared to water treatment ([2]; 66 h-old oral biofilms, KSL 200 μg/ml, benzalkonium chloride 0.001%): less effect on the viability |
| [H]/N=C(\N/C(=N/[H])NCCCCCCNC(=N)NC(=N)Nc1ccc(Cl)cc1)Nc1ccc(Cl)cc1 [chlorhexidine, chlorhexidine digluconate, reference compound] | – | – | – | – | – | – | – | – | – | – | – | – | – | – | – | – | – | – | – | – | viability of biofilm cells by live/dead staining [1]: significantly reduced the viability of biofilm cells; reduction of viable counts, intact biofilms ([2]; intact 45-h-old biofilms, 0.12% chlorhexidine, 1 min): larger reduction of viable counts |

— patent US8778889B2, “Antimicrobial decapeptide oral hygiene treatment” (The United States of America as represented by the …, priority 2003, dated 2014)
